The values that follow come from patent US20240350411A1, “METHODS FOR PREPARING LIPOSOMAL FORMULATIONS” (Celator Pharmaceuticals, Inc., priority 2021, published 2024).

A short description of the data set: Removal of free drug during purification with acidified sugar solution: concentration in the permeate. The text has this:
Without being bound by theory, it is surmised that encapsulation of therapeutic agents into liposomes results in some portion of the therapeutic agent becoming associated with or trapped within the lipid bilayer, particularly when encapsulating therapeutic agents with low water solubility or high hydrophobicity. Purifying the liposomal composition with an acidified aqueous solution may remove therapeutic agent that is associated with or trapped within the lipid bilayer, resulting in a liposome formulation that contains a therapeutic agent that is only encapsulated within the internal medium of the liposomes. […] As the washing volume increases—that is, as the liposomal composition is washed with an increasing amount of acidified aqueous sugar solution—the amount of Compound 9 detected in the permeate peaks, and then decreases. The peak is thought to result from a rapid release of Compound 9 that is associated with or trapped in the lipid bilayer into the acidified aqueous sugar solution. […] In other words, purifying the liposomal composition with an acidified aqueous solution may allow for any therapeutic agent merely associated with or trapped within the lipid bilayer to release into the acidified aqueous solution, thus preventing a rapid release from occurring in the bloodstream of a patient upon administration.
A formulation of liposomes containing Compound 9 was prepared and purified as described in Examples 1A, 1B, and 2. The liposome formulation comprised DSPC/Cholesterol/PEGylated (58/40/2 mol %) and used 250 mM AS as the loading aid.
During the purification of the formulation using tangential flow filtration, the concentration of Compound 9 in the permeate was measured, as shown below in Table 7. FIG. 3 depicts the concentration of Compound 9 in the permeate vs. the washing volume.

Consider `CCN(CC)C1CCN(CC[C@H](CSc2ccccc2)Nc2ccc(S(=O)(=O)NC(=O)c3ccc(N4CCN(CC5=C(c6ccc(Cl)cc6)CCC(C)(C)C5)CC4)cc3)cc2S(=O)(=O)C(F)(F)F)CC1` [Compound 9], for which, for the setting “after washing with about 300-400 mL of acidified aqueous sugar solution (FIG. 3)”, the “Compound 9 detected in the permeate” value is on record as “little”. Further, the “Concentration of Compound x in the permeate” value by setting is: (washing volume 1×) 7100 ng/mL; (washing volume 3×) 15900 ng/mL; (washing volume 6×) 3500 ng/mL; (washing volume 9×) 1400 ng/mL; (washing volume 12×) 1000 ng/mL.
